Results: patent US10023558B2, “Compounds” (CHIESI FARMACEUTICI S.P.A., priority 2016, dated 2018)

Molecular target: T1, human neutrophil elastase (HNE) (Homo sapiens, UniProt P08246)
T1 construct: purchased Sigma E8140
T1 sequence (P08246 30-247 limits assumed): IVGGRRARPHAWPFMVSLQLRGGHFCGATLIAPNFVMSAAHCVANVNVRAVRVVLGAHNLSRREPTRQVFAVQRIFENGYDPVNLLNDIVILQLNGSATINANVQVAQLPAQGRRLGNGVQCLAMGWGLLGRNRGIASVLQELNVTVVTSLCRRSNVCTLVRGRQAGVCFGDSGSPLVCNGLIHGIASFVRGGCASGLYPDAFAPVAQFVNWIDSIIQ
Assay: HNE Enzyme Assay (fluorogenic peptide substrate MeOSuc-Ala-Ala-Pro-Val-AMC)
Format: biochemical
Conditions: human leukocyte elastase 0.00072 U/mL, substrate 100 μM, 25° C., 30 minutes, at least two separate experiments; read-out: HNE inhibition (IC50 values)
How it was run: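 Human leukocyte elastase (0.00072 U/mL) with 100 μM MeOSuc-AAPV-AMC in Tris pH 7.5 buffer with NaCl, CaCl2, Brij-35, 1% DMSO, 30 min at 25° C, stopped with soybean trypsin inhibitor. AMC fluorescence (ex 380/em 460 nm); IC50 from concentration-response as % inhibition of control, at least two experiments.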

Structure (SMILES) | IC50 [nM]
Cc1c(-c2ccnn2-c2ccc(C#N)cc2)n(C(=O)N[C@H]2C[C@H](C[N+](C)(C)C)C2)c(=O)n1-c1cccc(C(F)(F)F)c1 [Example 68, (Trans-3-{[5-[2-(4-cyano-phenyl)-2H-pyrazol-3-yl]-4-methyl-2-oxo-3-(3-trifluoromethyl-phenyl)-2,3-dihydro-imidazole-1-carbonyl]-amino}-cyclobutylmethyl)-trimethyl-ammonium benzene sulfonate] | < 1
Cc1c(-c2ccnn2-c2ccc(C#N)cc2)n(C(=O)N[C@@H](C)C(=O)N2CCC([N+](C)(C)C)CC2)c(=O)n1-c1cccc(C(F)(F)F)c1 [Example 69, [1-((S)-2-{[5-[2-(4-Cyano-phenyl)-2H-pyrazol-3-yl]-4-methyl-2-oxo-3-(3-trifluoromethyl-phenyl)-2,3-dihydro-imidazole-1-carbonyl]-amino}-propionyl)-piperidin-4-yl]-trimethyl-ammonium benzene sulfonate] | < 1
Cc1c(-c2ccnn2-c2ccc(C#N)cc2)n(C(=O)N[C@@H](C)C(=O)N2CCC([N+](C)(C)Cc3ccccc3)CC2)c(=O)n1-c1cccc(C(F)(F)F)c1 [Example 70, Benzyl-[1-((S)-2-{[5-[2-(4-cyano-phenyl)-2H-pyrazol-3-yl]-4-methyl-2-oxo-3-(3-trifluoromethyl-phenyl)-2,3-dihydro-imidazole-1-carbonyl]-amino}-propionyl)-piperidin-4-yl]-dimethyl-ammonium bromide] | < 1
Cc1c(-c2ccnn2-c2ccc(C#N)cc2)n(C(=O)N[C@@H](C)C(=O)N(C)CC[N+](C)(C)C)c(=O)n1-c1cccc(C(F)(F)F)c1 [Example 71, {2-[((S)-2-{[5-[2-(4-Cyano-phenyl)-2H-pyrazol-3-yl]-4-methyl-2-oxo-3-(3-trifluoromethyl-phenyl)-2,3-dihydro-imidazole-1-carbonyl]-amino}-propionyl)-methyl-amino]-ethyl}-trimethyl-ammonium benzene sulfonate] | < 1
Cc1c(-c2ccnn2-c2ccc(C#N)cc2)n(C(=O)N[C@H]2CC[C@H]([N+](C)(C)Cc3ncon3)CC2)c(=O)n1-c1cccc(C(F)(F)F)c1 [Example 72, (Trans-4-{[5-[2-(4-cyano-phenyl)-2H-pyrazol-3-yl]-4-methyl-2-oxo-3-(3-trifluoromethyl-phenyl)-2,3-dihydro-imidazole-1-carbonyl]-amino}-cyclohexyl)-dimethyl-[1,2,4]oxadiazol-3-ylmethyl-amnionium chloride] | < 1
Cc1c(-c2ccnn2-c2ccc(C#N)cc2)n(C(=O)N[C@H](c2ncc(C[N+](C)(C)C)o2)C(C)C)c(=O)n1-c1cccc(C(F)(F)F)c1 [Example 73, [2-((S)-1-{[5-[2-(4-Cyano-phenyl)-2H-pyrazol-3-yl]-4-methyl-2-oxo-3-(3-trifluoromethyl-phenyl)-2,3-dihydro-imidazole-1-carbonyl]-amino}-2-methyl-propyl)-oxazol-5-ylmethyl]-trimethyl-ammonium benzene sulfonate] | < 1
CC[C@H](NC(=O)n1c(-c2ccnn2-c2ccc(C#N)cc2)c(C)n(-c2cccc(C(F)(F)F)c2)c1=O)c1ncc(C[N+](C)(C)C)o1 [Example 74, [2-((S)-1-{[5-[2-(4-Cyano-phenyl)-2H-pyrazol-3-yl]-4-methyl-2-oxo-3-(3-trifluoromethyl-phenyl)-2,3-dihydro-imidazole-1-carbonyl]-amino}-propyl)-oxazol-5-ylmethyl]-trimethyl-ammonium benzene sulfonate] | < 1
Cc1cc(C[N+](C)(C)[C@H]2CC[C@H](NC(=O)n3c(-c4ccnn4-c4ccc(C#N)cc4)c(C)n(-c4cccc(C(F)(F)F)c4)c3=O)CC2)no1 [Example 75, (4-{[5-[2-(4-Cyano-phenyl)-2H-pyrazol-3-yl]-4-methyl-2-oxo-3-(3-trifluoromethyl-phenyl)-2,3-dihydro-imidazole-1-carbonyl]-amino}-cyclohexyl)-dimethyl-(5-methyl-isoxazol-3-ylmethyl)-ammonium chloride] | < 1
Cc1cc(C[N+](C)(C)[C@H]2CC[C@H](NC(=O)n3c(-c4ccnn4-c4ccc(C#N)cc4)c(C)n(-c4cccc(C(F)(F)F)c4)c3=O)CC2)n(C)n1 [Example 76, (4-{[5-[2-(4-Cyano-phenyl)-2H-pyrazol-3-yl]-4-methyl-2-oxo-3-(3-trifluoromethyl-phenyl)-2,3-dihydro-imidazole-1-carbonyl]-amino}-cyclohexyl)-(2,5-dimethyl-2H-pyrazol-3-ylmethyl)-dimethyl-ammonium chloride] | < 1
Cc1c(-c2ccnn2-c2ccc(C#N)cc2)n(C(=O)N[C@H]2CC[C@H](C(=O)NCC[N+](C)(C)C)CC2)c(=O)n1-c1cccc(C(F)(F)F)c1 [Example 77, {2-[(Trans-4-{[5-[2-(4-cyano-phenyl)-2H-pyrazol-3-yl]-4-methyl-2-oxo-3-(3-trifluoromethyl-phenyl)-2,3-dihydro-imidazole-1-carbonyl]-amino}-cyclohexanecarbonyl)-amino]-ethyl}-trimethyl-ammonium benzene sulfonate] | < 1

Next, values leading:

IC50 [nM] | Structure (SMILES)
< 1 | Cc1c(-c2ccnn2-c2ccc(C#N)cc2)n(C(=O)N[C@@H](C)c2ccc(C[N+](C)(C)C)cc2)c(=O)n1-c1cccc(C(F)(F)F)c1 [Example 58, [4-((S)-1-{[5-[2-(4-Cyano-phenyl)-2H-pyrazol-3-yl]-4-methyl-2-oxo-3-(3-trifluoromethyl-phenyl)-2,3-dihydro-imidazole-1-carbonyl]-amino}-ethyl)-benzyl]-trimethyl-ammonium benzene sulfonate]
< 1 | Cc1c(-c2ccnn2-c2ccc(C#N)cc2)n(C(=O)N[C@@H](C)c2nc(C[N+](C)(C)C)no2)c(=O)n1-c1cccc(C(F)(F)F)c1 [Example 60, [5-((S)-1-{[5-[2-(4-Cyano-phenyl)-2H-pyrazol-3-yl]-4-methyl-2-oxo-3-(3-trifluoromethyl-phenyl)-2,3-dihydro-imidazole-1-carbonyl]-amino}-ethyl)-[1,2,4]oxadiazol-3-ylmethyl]-trimethyl-ammonium benzene sulfonate]
< 1 | Cc1c(-c2ccnn2-c2ccc(C#N)cc2)n(C(=O)NC2CCN(C(=O)C[N+](C)(C)C)CC2)c(=O)n1-c1cccc(C(F)(F)F)c1 [Example 61, [2-(4-{[5-[2-(4-Cyano-phenyl)-2H-pyrazol-3-yl]-4-methyl-2-oxo-3-(3-trifluoromethyl-phenyl)-2,3-dihydro-imidazole-1-carbonyl]-amino}-piperidin-1-yl)-2-oxo-ethyl]-trimethyl-ammonium benzene sulfonate]
< 1 | Cc1c(-c2ccnn2-c2ccc(C#N)cc2)n(C(=O)N[C@@H](C)C(=O)N(C)CC2CC[N+](C)(C)CC2)c(=O)n1-c1cccc(C(F)(F)F)c1 [Example 62, 4-{[((S)-2-{[5-[2-(4-Cyano-phenyl)-2H-pyrazol-3-yl]-4-methyl-2-oxo-3-(3-trifluoromethyl-phenyl)-2,3-dihydro-imidazole-1-carbonyl]-amino}-propionyl)-methyl-amino]-methyl}-1,1-dimethyl-piperidinium benzene sulfonate]
< 1 | Cc1c(-c2ccnn2-c2ccc(C#N)cc2)n(C(=O)N[C@@H](C)c2nnc(C[N+](C)(C)C)o2)c(=O)n1-c1cccc(C(F)(F)F)c1 [Example 63, [5-((S)-1-{[5-[2-(4-Cyano-phenyl)-2H-pyrazol-3-yl]-4-methyl-2-oxo-3-(3-trifluoromethyl-phenyl)-2,3-dihydro-imidazole-1-carbonyl]-amino}-ethyl)-[1,3,4]oxadiazol-2-ylmethyl]-trimethyl-ammonium benzene sulfonate]
< 1 | Cc1c(-c2ccnn2-c2ccc(C#N)cc2)n(C(=O)N[C@@H](C)c2ncc(C[N+](C)(C)C)o2)c(=O)n1-c1cccc(C(F)(F)F)c1 [Example 64, [2-((S)-1-{[5-[2-(4-Cyano-phenyl)-2H-pyrazol-3-yl]-4-methyl-2-oxo-3-(3-trifluoromethyl-phenyl)-2,3-dihydro-imidazole-1-carbonyl]-amino}-ethyl)-oxazol-5-ylmethyl]-trimethyl-ammonium benzene sulfonate]
< 1 | Cc1c(-c2ccnn2-c2ccc(C#N)cc2)n(C(=O)NC2CCN(C(=O)CC[N+](C)(C)C)CC2)c(=O)n1-c1cccc(C(F)(F)F)c1 [Example 65, [3-(4-{[5-[2-(4-Cyano-phenyl)-2H-pyrazol-3-yl]-4-methyl-2-oxo-3-(3-trifluoromethyl-phenyl)-2,3-dihydro-imidazole-1-carbonyl]-amino}-piperidin-1-yl)-3-oxo-propyl]-trimethyl-ammonium benzene sulfonate]
< 1 | Cc1c(-c2ccnn2-c2ccc(C#N)cc2)n(C(=O)NC2CCC3(CC2)CC[N+](C)(C)CC3)c(=O)n1-c1cccc(C(F)(F)F)c1 [Example 66, 9-{[5-[2-(4-Cyano-phenyl)-2H-pyrazol-3-yl]-4-methyl-2-oxo-3-(3-trifluoromethyl-phenyl)-2,3-dihydro-imidazole-1-carbonyl]-amino}-3,3-dimethyl-3-azonia-spiro[5.5]undecane benzene sulfonate]
< 1 | Cc1c(-c2ccnn2-c2ccc(C#N)cc2)n(C(=O)N[C@H]2C[C@@H](C[N+](C)(C)C)C2)c(=O)n1-c1cccc(C(F)(F)F)c1 [Example 67, (Cis-3-{[5-[2-(4-cyano-phenyl)-2H-pyrazol-3-yl]-4-methyl-2-oxo-3-(3-trifluoromethyl-phenyl)-2,3-dihydro-imidazole-1-carbonyl]-amino}-cyclobutylmethyl)-trimethyl-ammonium benzene sulfonate]
